Results published in paper PMC6274786 (International Journal of Molecular Sciences, 2018).
Where two headings read alike, the source gives them in different places.

Key:
PTZ-induced seizure = test: Pentylenetetrazole (PTZ)-induced seizure; type: in vivo, Wistar rats; conditions: for PTZ-Induced Seizure (protection class): PTZ 60 mg/kg; for protective effect in PTZ-induced seizure (in words): observed over 30 min, vs saline-treated group
Experimental: (§1) In this study and according to previously used protocols, two chemical agents have been used to induce seizures, namely pentylenetetrazole (PTZ, 60 mg/kg, i.p.) and strychnine (STR, 3.5 mg/kg, i.p.). PTZ 60 mg/kg or STR 3.5 mg/kg were administered i.p. to all groups of seven rats (n = 7), that is, animals pretreated with vehicle or test compounds 1–16. Vehicle, VPA (300 mg/kg, i.p.), [26, 47, 48, 49] or test compounds 1–16 (10 mg/kg, i.p.) were systemically administered 30–45 min before PTZ (60 mg/kg, i.p.) or STR (3.5 mg/kg, i.p.) injection, and animals were directly observed for any signs of convulsion for a duration of 30 min. The observed scores as well as percent protection against generalized tonic-clonic seizure (GTCS) were graded and scaled according to the Racine scale (stage 0, no change in behavior; stage 1, stereotype mouthing, eye blinking, and/or mild facial clonus; stage 2, head nodding and/or severe facial clonus; stage 3, myoclonic jerk in forelimbs; stage 4, clonic convulsions in the forelimbs with rearing; stage 5, generalized colonic convulsions associated with loss of balance) to evaluate the protection provided by the respective test compound against seizures. The animals were divided into eighteen groups of seven rats (n = 7) and treated as follows.
(§2) (1) Control group injected with vehicle + PTZ (SAL group), (2) positive control group in which rats were injected with VPA (300 mg/kg) + PTZ (VPA group), and animals in the test groups (3)–(18) were systemically administered with test compounds 1–16 (10 mg/kg), respectively. An additional PTZ experiment was conducted using three different groups of seven rats (n = 7), the H3R ligand with the most promising protection in PTZ model was administered at doses of 2.5, 5, or 15 mg/kg, i.p. 30–45 min before the PTZ challenge. […] The same experimental procedure was followed in the STR-induced seizure model applying the reference drug VPA, which was used at a dose of 300 mg/kg, i.p. (Figure 3, Table 2).

STR-induced seizure = test: Strychnine (STR)-induced seizure; type: in vivo, Wistar rats; conditions: for STR-Induced Seizure (protection class): STR 3.5 mg/kg
Experimental: as §1, §2

MES-induced seizure = test: Maximal electroshock (MES)-induced seizure; type: in vivo, Wistar rats; conditions: 10 mg/kg i.p.; for MES-Induced Seizure (protection class): 50 Hz, 120 mA, 1 s
From the text: As previously described, the seizures were induced in rats with a 50 Hz alternating current of 120 mA intensity. The current was applied through ear electrodes for 1 s. Protection against the spread of MES-induced seizure was defined as the abolition of the tonic hind limb extension (THLE) component of the seizure. For the first screening of protective effects of test compounds 1–16 in the MES-induced seizure model, the animals were divided into eighteen groups of seven rats (n = 7) as follows; group (1) control group injected with vehicle (SAL), group (2) positive control group in which rats were injected with PHT at a dose of 10 mg/kg (this being the minimal dose of PHT that protected animals against the spread of MES-induced seizures without mortality), and groups (3)–(18) animals in the experimental groups were administered H3R antagonists 1–16 at a dose of 10 mg/kg. In another MES experiment in three separate groups of six rats (n = 6), H3R antagonist 4 with the most promising protection in MES model was administered at doses of 2.5, 5, or 15 mg/kg, i.p. 30–45 min before the MES challenge.

human histamine H3R = molecular target: T1, human histamine H3R (Homo sapiens, UniProt Q9Y5N1); test: [3H]Nα-methylhistamine radioligand displacement assay, HEK-293 cell membranes; type: binding
T1 construct: expressed in transfected cells
Experimental: As described previously, the affinity for the human histamine H3R was tested utilizing radioligand displacement assays with [^3H]N^α-methylhistamine at membrane preparations from human embryonic kidney (HEK)-293 cells, stably expressing the receptor. […] The analysis of data was conducted by the software GraphPad Prism 7 (San Diego, CA, USA), using the “one-site competition” equation. Ki values were calculated from the 50 percent of inhibitory concentration (IC50) values according to the Cheng-Prusoff equation [44]

human H1 receptor = molecular target: T2, human H1 receptor (Homo sapiens, UniProt P35367); test: Radioligand binding, membranes from CHO-K1 cells
T2 construct: purchased PerkinElmer; host or cells: CHO-K1 cells, stably transfected (membranes)
Experimental: Radioligand binding was performed as previously described using membranes from CHO-K1 cells stably transfected with the human H1 receptor (PerkinElmer., Waltham, MA, USA). Data were fitted to a one-site curve-fitting equation with Prism 6 (GraphPad Software, city, state, country) and Ki values were estimated from the Cheng–Prusoff equation [44].

[1] = mean with 95% confidence interval, read-out: In Vitro Affinity Ki (hH3R) in nM [CI]

T1 sequence (Q9Y5N1 whole entry): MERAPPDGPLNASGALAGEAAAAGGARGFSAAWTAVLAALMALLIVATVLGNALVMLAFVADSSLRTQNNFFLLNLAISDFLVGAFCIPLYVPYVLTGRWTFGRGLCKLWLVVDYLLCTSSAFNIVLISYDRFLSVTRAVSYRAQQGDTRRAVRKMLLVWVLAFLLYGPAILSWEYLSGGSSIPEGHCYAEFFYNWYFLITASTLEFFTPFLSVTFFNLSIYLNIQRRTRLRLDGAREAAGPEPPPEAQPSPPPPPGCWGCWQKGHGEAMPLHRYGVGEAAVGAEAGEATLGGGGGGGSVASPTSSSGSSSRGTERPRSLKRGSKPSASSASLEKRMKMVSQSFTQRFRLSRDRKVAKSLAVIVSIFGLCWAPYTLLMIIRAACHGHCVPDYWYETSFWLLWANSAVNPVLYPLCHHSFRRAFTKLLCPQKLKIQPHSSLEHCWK
T2 sequence (P35367 whole entry): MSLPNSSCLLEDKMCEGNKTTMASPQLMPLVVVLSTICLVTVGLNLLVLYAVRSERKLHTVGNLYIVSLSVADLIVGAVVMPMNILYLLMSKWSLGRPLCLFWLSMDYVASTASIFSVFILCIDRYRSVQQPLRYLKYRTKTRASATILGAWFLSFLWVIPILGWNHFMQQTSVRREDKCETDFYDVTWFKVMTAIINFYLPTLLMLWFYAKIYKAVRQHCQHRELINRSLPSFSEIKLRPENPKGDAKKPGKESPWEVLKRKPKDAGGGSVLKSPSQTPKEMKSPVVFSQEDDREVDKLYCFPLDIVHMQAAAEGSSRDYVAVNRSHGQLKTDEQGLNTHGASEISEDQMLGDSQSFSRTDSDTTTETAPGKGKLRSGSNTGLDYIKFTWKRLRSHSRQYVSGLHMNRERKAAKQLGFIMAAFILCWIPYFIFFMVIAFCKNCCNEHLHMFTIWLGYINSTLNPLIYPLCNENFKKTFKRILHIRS

| Compound | PTZ-Induced Seizure (protection class) (PTZ-induced seizure; 10 mg/kg i.p.) | STR-Induced Seizure (protection class) (STR-induced seizure; 10 mg/kg i.p.) | MES-Induced Seizure (protection class) (MES-induced seizure) | Ki (human histamine H3R) | other results |
| --- | --- | --- | --- | --- | --- |
| CC1CCCN(CCCCCOc2ccc3ccccc3c2)C1.O=C(O)C(=O)O (stereo not shown) [Ligand 1, 3-methyl-1-(5-(naphthalen-2-yloxy)pentyl)piperidine hydrogen oxalate] | − | − | − |  |  |
| O=C(O)C(=O)O.O=C(c1ccccc1)c1cccc(OCCCCCCN2CCCCCC2)c1 [Ligand 10, (3-(6-(azepan-1-yl)hexyloxy)phenyl)(phenyl)methanone hydrogen oxalate] | − | − | − | 69.5 nM |  |
| O=C(O)C(=O)O.O=C(c1ccccc1)c1cccc(OCCCCCCN2CCCCC2)c1 [Ligand 8, phenyl(3-(6-(piperidin-1-yl)hexyloxy)phenyl)methanone hydrogen oxalate] | − | − | + (moderate protective effect (tonic hind limb extension (THLE) duration in the range of 2–5 s, seizure score in the range of 2–4)) | 76.1 nM |  |
| CC1CCCN(CCCCCCOc2ccc3ccccc3c2)C1.O=C(O)C(=O)O (stereo not shown) [Ligand 3, 3-methyl-1-(6-(naphthalen-2-yloxy)hexyl)piperidine hydrogen oxalate] | − | − | ++ (high protective effect (THLE duration <1, seizure score 0)) |  |  |
| O=C(O)C(=O)O.c1ccc2cc(OCCCCCN3CCCCCC3)ccc2c1 [Ligand 2, 1-(5-(naphthalen-2-yloxy)pentyl)azepane hydrogen oxalate] | − | − | − |  |  |
| O=C(O)C(=O)O.O=C(c1ccccc1)c1ccc(OCCCCCN2CCCCCC2)cc1 [Ligand 16, (4-(5-(azepan-1-yl)pentyloxy)phenyl)(phenyl)methanone hydrogen oxalate] | − | − | − | 38.5 nM |  |
| CC1CCCN(CCCCCCOc2ccc(F)cc2)C1.O=C(O)C(=O)O (stereo not shown) [Ligand 12, 1-(6-(4-fluorophenoxy)hexyl)-3-methylpiperidine hydrogen oxalate] | + (moderate protective effect (tonic hind limb extension (THLE) duration in the range of 2–5 s, seizure score in the range of 2–4)) | − | − |  | Ki (human histamine H3R; [1]): 83.6 nM |
| CC1CCCN(CCCCCOc2ccc(C(=O)c3ccccc3)cc2)C1.O=C(O)C(=O)O (stereo not shown) [Ligand 15, (4-(5-(3-methylpiperidin-1-yl)pentyloxy)phenyl)(phenyl)methanone hydrogen oxalate] | + (moderate protective effect (tonic hind limb extension (THLE) duration in the range of 2–5 s, seizure score in the range of 2–4)) | − | − | 40.2 nM | Ki (human H1 receptor): 915 to 1340 nM |
| CC1CCCN(CCCCCCOc2cccc(C(=O)c3ccccc3)c2)C1.O=C(O)C(=O)O (stereo not shown) [Ligand 9, (3-(6-(3-methylpiperidin-1-yl)hexyloxy)phenyl)(phenyl)methanone hydrogen oxalate] | − | − | − | 110 nM | Ki (human H1 receptor): 915 to 1340 nM |
| O=C1NC(=O)C(c2ccccc2)(c2ccccc2)N1 [PHT, phenytoin, reference compound] |  |  |  |  | MES-Induced Seizure Average THLE (MES-induced seizure): 0.90 ± 0.19 s |
| Fc1ccc(OCCCCCCN2CCCCC2)cc1.O=C(O)C(=O)O [Ligand 11, 1-(6-(4-fluorophenoxy)hexyl)piperidine hydrogen oxalate] | ++ (high protective effect (THLE duration <1, seizure score 0)) | − | − |  | protective effect in PTZ-induced seizure (in words) (PTZ-induced seizure; 10 mg/kg i.p.): full protective activities; protective effect in STR-induced seizure (in words) (STR-induced seizure; 10 mg/kg i.p., 30 min observation, vs saline-treated group): failed to exhibit appreciable protection; Ki (human histamine H3R; [1]): 115 nM |
| O=C(O)C(=O)O.O=C(c1ccccc1)c1ccc(OCCCCCCN2CCCCC2)cc1 [Ligand 5, phenyl(4-(6-(piperidin-1-yl)hexyloxy)phenyl)methanone hydrogen oxalate] | − | − | ++ (high protective effect (THLE duration <1, seizure score 0)) | 41.1 nM |  |
| O=C(O)C(=O)O.O=C(c1ccccc1)c1ccc(OCCCCCN2CCCCC2)cc1 [Ligand 14, phenyl(4-(5-(piperidin-1-yl)pentyloxy)phenyl)methanone hydrogen oxalate] | + (moderate protective effect (tonic hind limb extension (THLE) duration in the range of 2–5 s, seizure score in the range of 2–4)) | − | + (moderate protective effect (tonic hind limb extension (THLE) duration in the range of 2–5 s, seizure score in the range of 2–4)) | 36.2 nM |  |
| CCCC(CCC)C(=O)O [VPA, valproic acid, reference compound] |  |  |  |  | PTZ-Induced Seizure % Protection against GTCS (PTZ-induced seizure; 300 mg/kg i.p.): 100%; PTZ-Induced Seizure Average Seizure Score (PTZ-induced seizure; 300 mg/kg i.p.): 0.00 ± 0.00; STR-Induced Seizure % Protection against GTCS (STR-induced seizure; 300 mg/kg i.p.): 100%; STR-Induced Seizure Average Seizure Score (STR-induced seizure; 300 mg/kg i.p.): 0 |
| C[C@@H](N)Cc1c[nH]cn1 [RAMH, (R)-α-methylhistamine, reference compound] |  |  |  |  | PTZ-Induced Seizure % Protection against GTCS (PTZ-induced seizure; 10 mg/kg i.p.): 14.29%; PTZ-Induced Seizure Average Seizure Score (PTZ-induced seizure; 10 mg/kg i.p.): 4.29 ± 0.25; protective effect in PTZ-induced seizure (in words) (PTZ-induced seizure; 10 mg/kg i.p.): did not affect seizure score; STR-Induced Seizure % Protection against GTCS (STR-induced seizure; 10 mg/kg i.p.): 28.57%; STR-Induced Seizure Average Seizure Score (STR-induced seizure; 10 mg/kg i.p.): 4.71 ± 0.16; MES-Induced Seizure Average THLE (MES-induced seizure): 7.92 ± 0.60 s; protective effect in MES-induced seizure (in words) (MES-induced seizure; vs saline-treated group): did not affect MES-induced seizures |
